Values of other authors as cited in patent publication US20060019313A1, “Method for detecting molecular surface interactions” (Biacore AB, priority 2004, published 2006).

System: Anti-myoglobin IgG
Conditions: stated as known; IgG used as reference

CCC(Cc1c(I)cc(I)c(O)c1I)C(=O)O (stereo not drawn) [iophenoxic acid, α-ethyl-3-hydroxy-2,4,6-triiodohydro-cinnamic acid]
binding to IgG: not to IgG
